From ChEMBL document CHEMBL1201861, “Genomics of Drug Sensitity in Cancer screening data, Wellcome Trust Sanger Institute”

How the values were obtained:
Test in all cases: cells
HCE-4 = format: functional, cell-based; details: Homo sapiens;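 note: cell viability assay measuring inhibition of growth in the human HCE-4 cell line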
Description: SANGER: Inhibition of human HCE-4 cell growth in a cell viability assay.

ONS-76 = format: functional, cell-based, Homo sapiens; details: Homo sapiens, ONS-76;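 note: growth inhibition of human ONS-76 cells, read out with a cell viability assay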
Description: SANGER: Inhibition of human ONS-76 cell growth in a cell viability assay.

NOS-1 = format: functional, cell-based, Homo sapiens; details: Homo sapiens, NOS-1;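 note: growth inhibition of the human NOS-1 cell line, read out with a cell viability assay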
Description: SANGER: Inhibition of human NOS-1 cell growth in a cell viability assay.

LC-2-ad = format: functional, cell-based, Homo sapiens; details: Homo sapiens, LC-2-ad;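 note: growth inhibition of human LC-2-ad cells, read out with a cell viability assay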
Description: SANGER: Inhibition of human LC-2-ad cell growth in a cell viability assay.

HCE-T = format: functional, cell-based, Homo sapiens; details: Homo sapiens, HCE-T;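 note: cell viability assay read-out, reporting inhibition of HCE-T cell growth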
Description: SANGER: Inhibition of human HCE-T cell growth in a cell viability assay.

LNCaP-Clone-FGC = format: functional, cell-based, Homo sapiens; details: Homo sapiens, LNCaP-Clone-FGC
Description: SANGER: Inhibition of human LNCaP-Clone-FGC cell growth in a cell viability assay.

MZ7-mel = format: functional, cell-based, Homo sapiens; details: Homo sapiens, MZ7-mel;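 note: growth inhibition of human MZ7-mel cells, measured by a cell viability assay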
Description: SANGER: Inhibition of human MZ7-mel cell growth in a cell viability assay.

TE-9 = format: functional, cell-based, Homo sapiens; details: Homo sapiens, TE-9;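 note: cell growth inhibition, measured with a cell viability readout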
Description: SANGER: Inhibition of human TE-9 cell growth in a cell viability assay.

ES8 = format: functional, cell-based, Homo sapiens; details: Homo sapiens, ES8;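 note: growth inhibition of human ES8 cells, read out with a cell viability assay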
Description: SANGER: Inhibition of human ES8 cell growth in a cell viability assay.

KGN = format: functional, cell-based, Homo sapiens; details: Homo sapiens, KGN;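 note: growth inhibition of KGN cells, read out with a cell viability assay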
Description: SANGER: Inhibition of human KGN cell growth in a cell viability assay.

697 = format: functional, cell-based, Homo sapiens; details: Homo sapiens
Description: SANGER: Inhibition of human 697 cell growth in a cell viability assay.

KS-1 = format: functional, cell-based; details: Homo sapiens;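 note: growth inhibition of KS-1 cells, read out with a cell viability assay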
Description: SANGER: Inhibition of human KS-1 cell growth in a cell viability assay.

LAMA-84 = format: functional, cell-based, Homo sapiens; details: Homo sapiens, LAMA-84;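 note: growth inhibition of LAMA-84 cells, read out with a cell viability assay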
Description: SANGER: Inhibition of human LAMA-84 cell growth in a cell viability assay.

SH-4 = format: functional, cell-based; details: Homo sapiens;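 note: growth inhibition of SH-4 cells, read out with a cell viability assay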
Description: SANGER: Inhibition of human SH-4 cell growth in a cell viability assay.

NCI-H526 = format: functional, cell-based, Homo sapiens; details: Homo sapiens, NCI-H526;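 note: growth inhibition of the human NCI-H526 cell line, measured by a cell viability assay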
Description: SANGER: Inhibition of human NCI-H526 cell growth in a cell viability assay.

SW684 = format: functional, cell-based, Homo sapiens; details: Homo sapiens, SW684; read-out: IC50;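 note: growth inhibition of human SW684 cells, measured by a cell viability assay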
Description: SANGER: Inhibition of human SW684 cell growth in a cell viability assay.

CTV-1 = format: functional, cell-based, Homo sapiens; details: Homo sapiens, CTV-1;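 note: growth inhibition of the cell line, read out with a cell viability assay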
Description: SANGER: Inhibition of human CTV-1 cell growth in a cell viability assay.

MN-60 = format: functional, cell-based, Homo sapiens; details: Homo sapiens, MN-60;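 note: growth inhibition of the MN-60 cell line, determined with a cell viability assay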
Description: SANGER: Inhibition of human MN-60 cell growth in a cell viability assay.

NB6 = format: functional, cell-based, Homo sapiens; details: Homo sapiens, NB6;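 note: growth inhibition of NB6 cells, read out by a cell viability assay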
Description: SANGER: Inhibition of human NB6 cell growth in a cell viability assay.

LU-139 = format: functional, cell-based, Homo sapiens; details: Homo sapiens, LU-139
Description: SANGER: Inhibition of human LU-139 cell growth in a cell viability assay.

NB13 = format: functional, cell-based, Homo sapiens; details: Homo sapiens, NB13;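 note: cell viability readout measuring growth inhibition of human NB13 cells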
Description: SANGER: Inhibition of human NB13 cell growth in a cell viability assay.

JVM-3 = format: functional, cell-based, Homo sapiens; details: Homo sapiens, JVM-3;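 note: growth inhibition of human JVM-3 cells, read out with a cell viability assay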
Description: SANGER: Inhibition of human JVM-3 cell growth in a cell viability assay.

EOL1 = format: functional, cell-based, Homo sapiens; details: Homo sapiens, EOL1;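 note: growth inhibition of EoL-1 cells, read out by a cell viability assay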
Description: SANGER: Inhibition of human EoL-1-cell cell growth in a cell viability assay.

D283 Med = format: functional, cell-based, Homo sapiens; details: Homo sapiens, D283 Med
Description: SANGER: Inhibition of human D-283MED cell growth in a cell viability assay.

SJSA-1 = format: functional, cell-based, Homo sapiens; details: Homo sapiens, SJSA-1;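 note: growth inhibition of human SJSA-1 cells, read out through a cell viability measurement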
Description: SANGER: Inhibition of human SJSA-1 cell growth in a cell viability assay.

CCRF-CEM = format: functional, cell-based, Homo sapiens; details: Homo sapiens, CCRF-CEM;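 note: inhibition of CCRF-CEM cell growth, measured by a cell viability assay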
Description: SANGER: Inhibition of human CCRF-CEM cell growth in a cell viability assay.

NMC-G1 = format: functional, cell-based, Homo sapiens; details: Homo sapiens, NMC-G1;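 note: growth inhibition of the NMC-G1 cell line, measured with a cell viability read-out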
Description: SANGER: Inhibition of human NMC-G1 cell growth in a cell viability assay.

VA-ES-BJ = format: functional, cell-based, Homo sapiens; details: Homo sapiens, VA-ES-BJ;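 note: growth inhibition of the VA-ES-BJ cell line, read out by a cell viability assay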
Description: SANGER: Inhibition of human VA-ES-BJ cell growth in a cell viability assay.

MHH-PREB-1 = format: functional, cell-based, Homo sapiens; details: Homo sapiens, MHH-PREB-1;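 note: cell viability assay measuring inhibition of proliferation of human MHH-PREB-1 cells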
Description: SANGER: Inhibition of human MHH-PREB-1 cell growth in a cell viability assay.

CAS-1 = format: functional, cell-based, Homo sapiens; details: Homo sapiens, CAS-1;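 note: growth inhibition of CAS-1 cells, measured with a cell viability assay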
Description: SANGER: Inhibition of human CAS-1 cell growth in a cell viability assay.

8-MG-BA = format: functional, cell-based, Homo sapiens; details: Homo sapiens, 8-MG-BA;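 note: growth inhibition of 8-MG-BA cells, read out with a cell viability assay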
Description: SANGER: Inhibition of human 8-MG-BA cell growth in a cell viability assay.

NCI-H69 = format: functional, cell-based, Homo sapiens; details: Homo sapiens, NCI-H69;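 note: growth inhibition of the cell line, read out with a cell viability assay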
Description: SANGER: Inhibition of human NCI-H69 cell growth in a cell viability assay.

NCI-H1092 = format: functional, cell-based, Homo sapiens; details: Homo sapiens, NCI-H1092;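 note: cell growth inhibition measured with a cell viability assay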
Description: SANGER: Inhibition of human NCI-H1092 cell growth in a cell viability assay.

A101D = format: functional, cell-based, Homo sapiens; details: Homo sapiens, A101D;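 note: growth inhibition of the cell line, measured with a viability assay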
Description: SANGER: Inhibition of human A101D cell growth in a cell viability assay.

TK-10 = format: functional, cell-based, Homo sapiens; details: Homo sapiens, TK-10;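 note: growth inhibition of TK-10 cells, read out in a cell viability assay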
Description: SANGER: Inhibition of human TK10 cell growth in a cell viability assay.

LU-134-A = format: functional, cell-based, Homo sapiens; details: Homo sapiens, LU-134-A
Description: SANGER: Inhibition of human LU-134-A cell growth in a cell viability assay.

GR-ST = format: functional, cell-based, Homo sapiens; details: Homo sapiens, GR-ST
Description: SANGER: Inhibition of human GR-ST cell growth in a cell viability assay.

HD-MY-Z = format: functional, cell-based, Homo sapiens; details: Homo sapiens, HD-MY-Z;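 note: growth inhibition of HD-MY-Z cells, read out with a cell viability assay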
Description: SANGER: Inhibition of human HD-MY-Z cell growth in a cell viability assay.

GI-ME-N = format: functional, cell-based, Homo sapiens; details: Homo sapiens, GI-ME-N;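 note: growth inhibition of human GI-ME-N cells, read out with a cell viability assay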
Description: SANGER: Inhibition of human GI-ME-N cell growth in a cell viability assay.

KG-1 = format: functional, cell-based, Homo sapiens; details: Homo sapiens, KG-1;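 note: growth inhibition of KG-1 cells, read out by a cell viability assay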
Description: SANGER: Inhibition of human KG-1 cell growth in a cell viability assay.

SF-126 = format: functional, cell-based, Homo sapiens; details: Homo sapiens, SF-126;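 note: growth inhibition of human SF126 cells, read out with a cell viability assay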
Description: SANGER: Inhibition of human SF126 cell growth in a cell viability assay.

U-266 = format: functional, cell-based, Homo sapiens; details: Homo sapiens, U-266
Description: SANGER: Inhibition of human U-266 cell growth in a cell viability assay.

KNS-42 = format: functional, cell-based; details: Homo sapiens;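 note: growth inhibition of KNS-42 cells, read out with a cell viability assay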
Description: SANGER: Inhibition of human KNS-42 cell growth in a cell viability assay.

MS-1 = format: functional, cell-based, Homo sapiens; details: Homo sapiens, MS-1;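 note: growth inhibition of MS-1 cells, read out by cell viability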
Description: SANGER: Inhibition of human MS-1 cell growth in a cell viability assay.

KY821 = format: functional, cell-based, Homo sapiens; details: Homo sapiens, KY821;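 note: growth inhibition of human KY821 cells, read out by a cell viability assay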
Description: SANGER: Inhibition of human KY821 cell growth in a cell viability assay.

SK-MEL-2 = format: functional, cell-based, Homo sapiens; details: Homo sapiens, SK-MEL-2;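 note: growth inhibition of human SK-MEL-2 cells measured with a cell viability assay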
Description: SANGER: Inhibition of human SK-MEL-2 cell growth in a cell viability assay.

GB-1 = format: functional, cell-based, Homo sapiens; details: Homo sapiens, GB-1;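 note: growth of GB-1 cells judged by a viability assay, IC50 marks the concentration inhibiting growth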
Description: SANGER: Inhibition of human GB-1 cell growth in a cell viability assay.

KURAMOCHI = format: functional, cell-based, Homo sapiens; details: Homo sapiens, KURAMOCHI;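 note: growth inhibition of KURAMOCHI cells, read out with a cell viability assay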
Description: SANGER: Inhibition of human KURAMOCHI cell growth in a cell viability assay.

NCI-H1838 = format: functional, cell-based, Homo sapiens; details: Homo sapiens, NCI-H1838;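 note: growth inhibition of NCI-H1838 cells, determined with a cell viability readout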
Description: SANGER: Inhibition of human NCI-H1838 cell growth in a cell viability assay.

NC1(c2ccc(-c3nc4ccn5c(=O)[nH]nc5c4cc3-c3ccccc3)cc2)CCC1 [MK-2206]
IC50 (HCE-4): > 4 µM
IC50 (ONS-76): > 4 µM
IC50 (NOS-1): 0.637 µM
IC50 (LC-2-ad): > 4 µM
IC50 (HCE-T): > 4 µM
IC50 (LNCaP-Clone-FGC): 0.61 µM
IC50 (MZ7-mel): > 4 µM
IC50 (TE-9): > 4 µM
IC50 (ES8): 2.49 µM
IC50 (KGN): > 4 µM
IC50 697: 1.38 µM
IC50 (KS-1): 2.38 µM
IC50 (LAMA-84): > 4 µM
IC50 (SH-4): > 4 µM
IC50 (NCI-H526): > 4 µM
IC50 (SW684): > 4 µM
IC50 (CTV-1): > 4 µM
IC50 (MN-60): 2.3 µM
IC50 (NB6): > 4 µM
IC50 (LU-139): > 4 µM
IC50 (NB13): > 4 µM
IC50 (JVM-3): > 4 µM
IC50 (EOL1): 3.07 µM
IC50 (D283 Med): > 4 µM
IC50 (SJSA-1): > 4 µM
IC50 (CCRF-CEM): > 4 µM
IC50 (NMC-G1): > 4 µM
IC50 (VA-ES-BJ): 0.73 µM
IC50 (MHH-PREB-1): 3.72 µM
IC50 (CAS-1): > 4 µM
IC50 (8-MG-BA): > 4 µM
IC50 (NCI-H69): > 4 µM
IC50 (NCI-H1092): > 4 µM
IC50 (A101D): > 4 µM
IC50 (TK-10): > 4 µM
IC50 (LU-134-A): 3.88 µM
IC50 (GR-ST): 3.05 µM
IC50 (HD-MY-Z): > 4 µM
IC50 (GI-ME-N): > 4 µM
IC50 (KG-1): > 4 µM
IC50 (SF-126): > 4 µM
IC50 (U-266): > 4 µM
IC50 (KNS-42): > 4 µM
IC50 (MS-1): > 4 µM
IC50 (KY821): > 4 µM
IC50 (SK-MEL-2): > 4 µM
IC50 (GB-1): > 4 µM
IC50 (KURAMOCHI): > 4 µM

CS(=O)(=O)N1CCN(Cc2cc3nc(-c4cccc5[nH]ncc45)nc(N4CCOCC4)c3s2)CC1 [PICTILISIB]
IC50 (HCE-4): > 4 µM
IC50 (ONS-76): > 4 µM
IC50 (NOS-1): 0.212 µM
IC50 (LC-2-ad): > 4 µM
IC50 (HCE-T): > 4 µM
IC50 (MZ7-mel): > 4 µM
IC50 (TE-9): > 4 µM
IC50 (ES8): 0.811 µM
IC50 (KGN): > 4 µM
IC50 697: 0.832 µM
IC50 (KS-1): 2.11 µM
IC50 (LAMA-84): 2.03 µM
IC50 (SH-4): > 4 µM
IC50 (NCI-H526): 1.91 µM
IC50 (SW684): > 4 µM
IC50 (MN-60): > 4 µM
IC50 (NB6): > 4 µM
IC50 (NB13): > 4 µM
IC50 (JVM-3): 1.65 µM
IC50 (D283 Med): 2.36 µM
IC50 (SJSA-1): 3.71 µM
IC50 (CCRF-CEM): > 4 µM
IC50 (NMC-G1): > 4 µM
IC50 (VA-ES-BJ): 1.61 µM
IC50 (MHH-PREB-1): 0.114 µM
IC50 (CAS-1): > 4 µM
IC50 (8-MG-BA): > 4 µM
IC50 (NCI-H1092): > 4 µM
IC50 (A101D): 0.99 µM
IC50 (TK-10): 1.67 µM
IC50 (LU-134-A): > 4 µM
IC50 (GR-ST): > 4 µM
IC50 (HD-MY-Z): > 4 µM
IC50 (GI-ME-N): > 4 µM
IC50 (KG-1): > 4 µM
IC50 (SF-126): 2.31 µM
IC50 (U-266): > 4 µM
IC50 (KNS-42): > 4 µM
IC50 (MS-1): > 4 µM
IC50 (SK-MEL-2): > 4 µM
IC50 (GB-1): > 4 µM
IC50 (KURAMOCHI): > 4 µM
IC50 (NCI-H1838): > 4 µM

CN(C)CCOc1ccc(-c2nc(-c3ccncc3)c(-c3ccc4c(c3)CC/C4=N\O)[nH]2)cc1 [SB590885]
IC50 (HCE-4): > 5 µM
IC50 (ONS-76): > 5 µM
IC50 (NOS-1): > 5 µM
IC50 (LC-2-ad): > 5 µM
IC50 (HCE-T): > 5 µM
IC50 (LNCaP-Clone-FGC): > 5 µM
IC50 (MZ7-mel): > 5 µM
IC50 (TE-9): > 5 µM
IC50 (ES8): > 5 µM
IC50 (KGN): > 5 µM
IC50 697: > 5 µM
IC50 (KS-1): > 5 µM
IC50 (LAMA-84): > 5 µM
IC50 (SH-4): 0.812 µM
IC50 (NCI-H526): > 5 µM
IC50 (SW684): > 5 µM
IC50 (CTV-1): > 5 µM
IC50 (MN-60): > 5 µM
IC50 (NB6): > 5 µM
IC50 (LU-139): > 5 µM
IC50 (NB13): > 5 µM
IC50 (JVM-3): > 5 µM
IC50 (EOL1): 0.18 µM
IC50 (D283 Med): > 5 µM
IC50 (SJSA-1): > 5 µM
IC50 (CCRF-CEM): > 5 µM
IC50 (NMC-G1): > 5 µM
IC50 (VA-ES-BJ): > 5 µM
IC50 (MHH-PREB-1): > 5 µM
IC50 (CAS-1): > 5 µM
IC50 (8-MG-BA): > 5 µM
IC50 (NCI-H69): > 5 µM
IC50 (NCI-H1092): > 5 µM
IC50 (A101D): 0.5 µM
IC50 (TK-10): > 5 µM
IC50 (LU-134-A): > 5 µM
IC50 (GR-ST): > 5 µM
IC50 (HD-MY-Z): > 5 µM
IC50 (GI-ME-N): > 5 µM
IC50 (KG-1): > 5 µM
IC50 (SF-126): > 5 µM
IC50 (U-266): > 5 µM
IC50 (KNS-42): > 5 µM
IC50 (MS-1): > 5 µM
IC50 (KY821): > 5 µM
IC50 (SK-MEL-2): 0.738 µM
IC50 (GB-1): > 5 µM
IC50 (KURAMOCHI): > 5 µM
IC50 (NCI-H1838): > 5 µM
